The NIST ThermoML archive (doi:10.1021/je501133u)

Experiment: xn = mol fraction of the nth substance listed
Details: 100 kPa, Liquid; for viscosity: Falling or rolling sphere viscometry; for mass density: Vibrating tube method

CCCCCCO [hexan-1-ol] + CCO
Details	mass density [kg/m3]	viscosity [mPa·s]
293.15 K, x2 = 0	818.9	5.35
293.15 K, x2 = 0.1001	816.7	4.67
293.15 K, x2 = 0.2003	815.1	4.15
293.15 K, x2 = 0.3004	813.3	3.66
293.15 K, x2 = 0.4006	811.6	3.19
293.15 K, x2 = 0.4998	808.7	2.76
293.15 K, x2 = 0.6009	806	2.41
293.15 K, x2 = 0.7001	802.9	2.03
293.15 K, x2 = 0.7995	799.2	1.71
293.15 K, x2 = 0.9001	794.9	1.43
298.15 K, x2 = 0	815.3	4.56
298.15 K, x2 = 0.1001	813.1	4.02
298.15 K, x2 = 0.2003	811.5	3.6
298.15 K, x2 = 0.3004	809.7	3.19
298.15 K, x2 = 0.4006	807.9	2.8
298.15 K, x2 = 0.4998	805	2.44
298.15 K, x2 = 0.6009	802.2	2.14
298.15 K, x2 = 0.7001	798.9	1.81
298.15 K, x2 = 0.7995	795.2	1.54
298.15 K, x2 = 0.9001	790.8	1.29
303.15 K, x2 = 0	811.7	3.9
303.15 K, x2 = 0.1001	809.5	3.48
303.15 K, x2 = 0.2003	807.8	3.14
303.15 K, x2 = 0.3004	806	2.8
303.15 K, x2 = 0.4006	804.1	2.47
303.15 K, x2 = 0.4998	801.2	2.17
303.15 K, x2 = 0.6009	798.4	1.91
303.15 K, x2 = 0.7001	795	1.63
303.15 K, x2 = 0.7995	791.2	1.39
303.15 K, x2 = 0.9001	786.6	1.17
308.15 K, x2 = 0	808.1	3.36
308.15 K, x2 = 0.1001	805.9	3.03
308.15 K, x2 = 0.2003	804.2	2.75
308.15 K, x2 = 0.3004	802.3	2.47
308.15 K, x2 = 0.4006	800.4	2.19
308.15 K, x2 = 0.4998	797.4	1.93
308.15 K, x2 = 0.6009	794.5	1.71
308.15 K, x2 = 0.7001	791.1	1.47
308.15 K, x2 = 0.7995	787.1	1.26
308.15 K, x2 = 0.9001	782.5	1.07
313.15 K, x2 = 0	804.5	2.91
313.15 K, x2 = 0.1001	802.2	2.65
313.15 K, x2 = 0.2003	800.5	2.42
313.15 K, x2 = 0.3004	798.5	2.18
313.15 K, x2 = 0.4006	796.6	1.94
313.15 K, x2 = 0.4998	793.6	1.73
313.15 K, x2 = 0.6009	790.6	1.54
313.15 K, x2 = 0.7001	787.1	1.32
313.15 K, x2 = 0.7995	783	1.14
313.15 K, x2 = 0.9001	778.2	0.97
318.15 K, x2 = 0	800.8	2.54
318.15 K, x2 = 0.1001	798.5	2.33
318.15 K, x2 = 0.2003	796.7	2.14
318.15 K, x2 = 0.3004	794.8	1.94
318.15 K, x2 = 0.4006	792.7	1.73
318.15 K, x2 = 0.4998	789.7	1.55
318.15 K, x2 = 0.6009	786.6	1.39
318.15 K, x2 = 0.7001	783	1.2
318.15 K, x2 = 0.7995	778.9	1.04
318.15 K, x2 = 0.9001	774	0.89
323.15 K, x2 = 0	797.1	2.23
323.15 K, x2 = 0.1001	794.8	2.06
323.15 K, x2 = 0.2003	793	1.9
323.15 K, x2 = 0.3004	790.9	1.73
323.15 K, x2 = 0.4006	788.9	1.55
323.15 K, x2 = 0.4998	785.7	1.39
323.15 K, x2 = 0.6009	782.6	1.25
323.15 K, x2 = 0.7001	779	1.09
323.15 K, x2 = 0.7995	774.7	0.94
323.15 K, x2 = 0.9001	769.7	0.81
328.15 K, x2 = 0	793.4	1.97
328.15 K, x2 = 0.1001	791	1.82
328.15 K, x2 = 0.2003	789.2	1.69
328.15 K, x2 = 0.3004	787.1	1.54
328.15 K, x2 = 0.4006	784.9	1.39
328.15 K, x2 = 0.4998	781.8	1.25
328.15 K, x2 = 0.6009	778.6	1.13
328.15 K, x2 = 0.7001	774.8	0.99
328.15 K, x2 = 0.7995	770.4	0.86
328.15 K, x2 = 0.9001	765.3	0.75
